# Laboratory results taken from patent US7049311B1, “Pyrrolbenzodiazepines” (Spirogen Limited, priority 1998, dated 2006).
# Experiments:
# [1] = tested on: A2780cisR; experiment: Ovarian carcinoma cytotoxicity assay; format: cell-based, human; conditions: Homo sapiens, A2780cisR, 96 h, read-out: IC50 A2780cisR, cisplatin-resistant, 96 hours, sulphorhodamine B
# How it was run: (§1)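 Cells attached overnight, then read 96 hours later by sulphorhodamine B staining of TCA-fixed cells, with absorbance at 540 nm. IC50 taken from concentration versus % absorbance relative to untreated wells; cisR lines are cisplatin-resistant.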
# [2] = tested on: A2780; experiment: Ovarian carcinoma cytotoxicity assay; format: cell-based, human; conditions: Homo sapiens, A2780, 96 h, read-out: IC50 A2780, 96 hours, sulphorhodamine B
# How it was run: as §1
# [3] = tested on: SF-295; experiment: cells; format: cell-based; conditions: Homo sapiens, SF-295, 48 h, read-out: LC50
# Method: The National Cancer Institute (NCI), Bethesda, Md., USA has available an in vitro cytotoxicity screen which consists of approximately 60 human tumour cell lines against which compounds are tested at a minimum of five concentrations each differing 10-fold. A 48 hour continuous exposure protocol is used, where cell viability or growth is estimated with an SRB protein assay.
# The test compounds were evaluated against approximately 60 human tumour cell lines. The NCI screening procedures were described in detail by Monks and co-workers (Monks, A et al., Journal of the National Cancer Institute, 1991, 83, 757). Briefly, cell suspensions were diluted according to the particular cell type and the expected target cell density (5000-40,000 cells per well based on cell growth characteristics), and added by pipette (100 μL) into 96-well microtitre plates. The cells were allowed a preincubation period of 24 hours at 37° C. for stabilisation. Dilutions at twice the intended test concentration were added at time zero in 100 μL aliquots to the wells. The test compounds were evaluated at five 10-fold dilutions (10^−4, 10^−5, 10^−6, 10^−7 and 10^−8 μM). […] A plate reader was used to read the optical densities and a microcomputer processed the readings into LC50 values, which is the dosage required to kill half of the cells.
# [4] = tested on: CH1; experiment: Ovarian carcinoma cytotoxicity assay; format: cell-based; conditions: Homo sapiens, CH1, 96 h, read-out: IC50 CH1, 96 hours, sulphorhodamine B
# How it was run: as §1
# [5] = tested on: CH1cisR; experiment: Ovarian carcinoma cytotoxicity assay; format: cell-based; conditions: Homo sapiens, CH1cisR, 96 h, read-out: IC50 CH1cisR, cisplatin-resistant, 96 hours, sulphorhodamine B
# How it was run: as §1
# [6] = tested on: SKOV-3; experiment: Ovarian carcinoma cytotoxicity assay; format: cell-based; conditions: Homo sapiens, SK-OV-3, 96 h, read-out: IC50 Skov3, 96 hours, sulphorhodamine B
# How it was run: as §1
# [7] = tested on: SK-MEL-28; experiment: NCI in vitro cytotoxicity screen; format: cell-based; conditions: Homo sapiens, SK-MEL-28, 48 h, read-out: LC50
# How it was run: (§2)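 Human tumour cells were seeded at 5000-40,000 per well and preincubated 24 hours at 37° C. Compounds were added at five 10-fold dilutions (10^−4 to 10^−8 […]) for 48 hours continuous exposure in 5% CO2. Viability was measured by sulphorhodamine B protein staining and optical density, giving LC50 values.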
# [8] = tested on: RXF 393; experiment: NCI in vitro cytotoxicity screen; format: cell-based; conditions: Homo sapiens, RXF 393, 48 h, read-out: LC50
# How it was run: as §2
# [9] = tested on: SF-539; experiment: NCI in vitro cytotoxicity screen; format: cell-based; conditions: Homo sapiens, SF-539, 48 h, read-out: LC50
# How it was run: as §2
# [10] = tested on: MALME-3M; experiment: NCI in vitro cytotoxicity screen; format: cell-based; conditions: Homo sapiens, Malme-3M, 48 h, read-out: LC50
# How it was run: as §2
# [11] = tested on: LOX IMVI; experiment: NCI in vitro cytotoxicity screen; format: cell-based; conditions: Homo sapiens, 48 h, read-out: LC50
# How it was run: as §2
# [12] = tested on: M14; experiment: NCI in vitro cytotoxicity screen; format: cell-based; conditions: Homo sapiens, M14, 48 h, read-out: LC50
# How it was run: as §2
# [13] = tested on: SK-MEL-2; experiment: NCI in vitro cytotoxicity screen; format: cell-based; conditions: Homo sapiens, SK-MEL-2, 48 h, read-out: LC50
# How it was run: as §2
# [14] = tested on: NCI-H522; experiment: NCI in vitro cytotoxicity screen; format: cell-based; conditions: Homo sapiens, NCI-H522, 48 h, read-out: LC50
# How it was run: as §2
compound,measurement,setting,value
"COc1cc2c(cc1OCCC(=O)N1CCCC1)N=C[C@@H]1CCCN1C2=O [UP2005 (161), 3-(7-methoxy-5-oxy(11aS)-2,3,5,11a-tetrahydro-1H-benzo[e]pyrrolo[1,2-a][1,4]diazepin-8-yloxy)-1-perhydro-1-pyrrolyl-1-propanone]",IC50,[1],4.3 µM
same,IC50,[2],1.5 µM
same,CC50,[3],8.8 µM
same,IC50,[4],1.4 µM
same,IC50,[5],1.85 µM
same,IC50,[6],5.4 µM
same,CC50,[7],6.5 µM
same,CC50,[8],6.8 µM
same,CC50,[9],7.7 µM
same,CC50,[10],7.5 µM
same,CC50,[11],9.2 µM
same,CC50,[12],6.2 µM
same,CC50,[13],7.6 µM
same,CC50,[14],8.7 µM
